Results published in patent US20060063828A1 (priority 2004, published 2006).

Legend:
VCAM-1 = experiment: In Vitro VCAM-1 Assay (ELISA of VCAM-1 on TNF-α stimulated endothelial cells); format: cell-based; details: Endothelial cell; primary human aortic (HAEC) or pulmonary (HPAEC) endothelial cells, TNF-α (1 ng/ml), approximately 16 hours
Experimental: Cell Culture and compound dosing: Cultured primary human aortic (HAEC) or pulmonary (HPAEC) endothelial cells were obtained from Clonetics, Inc., and were used below passage 9. Cells were seeded in 96 well plates such that they would reach 90-95% confluency by the following day. On the following day the cells were stimulated with TNF-α (1 ng/ml) in the presence or absence of compounds dissolved in DMSO such that the final concentration of DMSO is 0.25% or less. To establish a dose curve for each compound, four concentrations in 2- to 5-fold increments were used. Cells were exposed to TNF-α and compounds for approximately 16 hours. The next day the cells were examined under microscope to score for visual signs of toxicity or cell stress.
Following 16 hr exposure to TNF-α and compound the media was discarded and the cells were washed once with Hanks Balanced Salt Solution (HBSS)/Phosphate buffered saline (PBS) (1:1). Primary antibodies against VCAM-1 (0.25 μg/ml in HBSS/PBS+5% FBS) were added and incubated for 30-60 minutes at 37° C. Cells were washed with HBSS/PBS three times, and secondary antibody Horse Radish Peroxidase (HRP)-conjugated goat anti-mouse IgG (1:500 in HBSS/PBS+5% FBS) were added and incubated for 30 minutes at 37° C. Cells were washed with HBSS/PBS four time and TMB substrate were added and incubated at room temperature in the dark until there was adequate development of blue color. The length of time of incubation was typically 5-15 minutes. 2N sulfuric acid was added to stop the color development and the data was collected by reading the absorbance on a BioRad ELISA plate reader at OD 450 nm. The results are expressed as IC50 values (the concentration (micromolar) of compound required to inhibit 50% of the maximal response of the control sample stimulated by TNF-α only).

IC50 (VCAM-1) [µM] | melting point | Compound
< 3 | 186.5 to 188 °C | C=C(C(=O)c1c(C)cccc1C)c1ccc(C(=O)O)cc1-c1cccs1 [Example 33, 4-[1-(2,6-Dimethyl-benzoyl)-vinyl]-3-thien-2-yl-benzoic acid]
> 10 | 130 to 132.5 °C | C=C(C(=O)c1c(OC)ccc(-c2cccs2)c1OC)c1cc(C(C)(C)C)c(O)c(C(C)(C)C)c1 [Example 34, 2-(3,5-Di-tert-butyl-4-hydroxy-phenyl)-1-(2,6-dimethoxy-3-thien-2-yl-phenyl)-propenone]
< 3 | 138 °C (dec.) | C=C(C(=O)c1c(OC)ccc(-c2cccs2)c1OC)c1ccc(OC(C)(C)C(=O)O)cc1 [Example 35, 2-{4-[1-(2,6-Dimethoxy-3-thien-2-yl-benzoyl)-vinyl]-phenoxy}-2-methyl-propionic acid]
< 3 | 192 to 195 °C | C=C(C(=O)c1c(OC)cccc1OC)c1ccc(C(=O)O)cc1-c1cccs1 [Example 36, 4-[1-(2,6-Dimethoxy-benzoyl)-vinyl]-3-thien-2-yl-benzoic acid]
< 1 | 102 to 105 °C | C=C(C(=O)c1c(OC)ccc(-c2cccs2)c1OC)c1ccc(C(F)(F)F)cc1 [Example 40, 1-(2,6-Dimethoxy-3-thien-2-yl-phenyl)-2-(4-trifluoromethyl-phenyl)-propenone]
< 1 | 114 to 118 °C | C=C(C(=O)c1c(OC)ccc(-c2cccs2)c1OC)c1ccc([N+](=O)[O-])cc1 [Example 41, 1-(2,6-Dimethoxy-3-thien-2-yl-phenyl)-2-(4-nitrophenyl)-propenone]
< 1 | 152 to 154 °C | C=C(C(=O)c1c(OC)ccc(-c2cccs2)c1OC)c1c(Cl)cccc1Cl [Example 42, 2-(2,6-Dichloro-phenyl)-1-(2,6-dimethoxy-3-thien-2-yl-phenyl)-propenone]
< 3 | 70 to 73 °C | C=C(C(=O)c1c(OC)cccc1OC)c1ccccc1-c1cccs1 [Example 43, 1-(2,6-Dimethoxy-phenyl)-2-(2-thien-2-yl-phenyl)-propenone]
< 3 | 79 to 94 °C | C=C(C(=O)c1c(OC)ccc(-c2cccs2)c1OC)c1cccc(OC(C)(C)C(=O)O)c1 [Example 44, 2-{3-[1-(2,6-Dimethoxy-3-thien-2-yl-benzoyl)-vinyl]-phenoxy}-2-methyl-propionic acid]
< 1 | 135 to 137 °C | C=C(C(=O)c1c(OC)ccc(-c2cc3ccccc3s2)c1OC)c1cccc(OC(C)(C)C(=O)O)c1 [Example 45, 2-{3-[1-(3-Benzo[b]thien-2-yl-2,6-dimethoxy-benzoyl)-vinyl]-phenoxy}-2-methyl-propionic acid]
< 3 | 166 to 168 °C | C=C(C(=O)c1cc(-c2cc3ccccc3s2)c(OC)cc1OC)c1ccc(OC)cc1 [Example 46, 1-(5-Benzo[b]thien-2-yl-2,4-dimethoxy-phenyl)-2-(4-methoxy-phenyl)-propenone]
< 3 | 150 to 152 °C | C=C(C(=O)c1cc(-c2cc3ccccc3s2)c(OC)cc1OC)c1ccc(F)cc1 [Example 47, 1-(5-Benzo[b]thien-2-yl-2,4-dimethoxy-phenyl)-2-(4-fluoro-phenyl)-propenone]
< 10 | 102 to 103 °C | C=C(C(=O)c1ccc(C(=O)OC)cc1)c1cc(OC)c(OC)c(-c2cccs2)c1 [Example 48, 4-[2-(3,4-Dimethoxy-5-thien-2-yl-phenyl)-acryloyl]-benzoic acid methyl ester]
< 6 | 156 to 157 °C | C=C(C(=O)c1ccc(C(=O)O)cc1)c1cc(OC)c(OC)c(-c2cccs2)c1 [Example 49, 4-[2-(3,4-Dimethoxy-5-thien-2-yl-phenyl)-acryloyl]-benzoic acid]
